Reference: PMC9234961 (Journal of Medicinal Chemistry, 2022)
Read-outs that look alike come from different tables or passages of the source.

Assays:
in vitro = in vitro ADME; settings: pH 7.4, 10 µM, 16 h at 30 °C
[1] = In vivo pharmacokinetic study in Balb/C mice; design: species or system mouse; settings: for Vd: 1 mg/kg, read-out: Vss
ADRA2A = biological target: T1, ADRA2A (Homo sapiens, UniProt P08913); assay: SAFETYScan GPCR cAMP, Antagonist; type: cell-based
T1 construct: expressed in transfected cells
T1 sequence (P08913 1-465): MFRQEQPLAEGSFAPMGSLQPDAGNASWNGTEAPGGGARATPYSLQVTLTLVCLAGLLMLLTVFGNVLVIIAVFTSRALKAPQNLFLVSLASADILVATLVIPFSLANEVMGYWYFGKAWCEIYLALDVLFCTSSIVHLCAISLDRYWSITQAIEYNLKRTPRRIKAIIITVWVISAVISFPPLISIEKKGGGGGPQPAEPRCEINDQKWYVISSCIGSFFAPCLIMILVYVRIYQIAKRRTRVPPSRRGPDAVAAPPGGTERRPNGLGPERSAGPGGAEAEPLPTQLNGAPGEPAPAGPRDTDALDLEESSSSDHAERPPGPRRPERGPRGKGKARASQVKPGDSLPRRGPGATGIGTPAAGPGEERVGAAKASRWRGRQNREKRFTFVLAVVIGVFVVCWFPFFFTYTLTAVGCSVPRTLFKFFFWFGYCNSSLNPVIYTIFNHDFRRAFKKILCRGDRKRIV
Source text: (§1) Supplement jm1c02175_si_002.xlsx, sheet "SAFETYScan" | column: RC50 (uM); Max Response

ADRB1 = biological target: T2, ADRB1 (Homo sapiens, UniProt P08588); assay: SAFETYScan GPCR cAMP, Antagonist; type: cell-based
T2 construct: expressed in transfected cells
Source text: as §1

ADRB2 = biological target: T3, ADRB2 (Homo sapiens, UniProt P07550); assay: SAFETYScan GPCR cAMP, Antagonist; type: cell-based
T3 construct: expressed in transfected cells
Source text: as §1

CHRM2 = biological target: T4, CHRM2 (Homo sapiens, UniProt P08172); assay: SAFETYScan GPCR cAMP, Antagonist; type: cell-based
T4 construct: expressed in transfected cells
T4 sequence (P08172 1-466): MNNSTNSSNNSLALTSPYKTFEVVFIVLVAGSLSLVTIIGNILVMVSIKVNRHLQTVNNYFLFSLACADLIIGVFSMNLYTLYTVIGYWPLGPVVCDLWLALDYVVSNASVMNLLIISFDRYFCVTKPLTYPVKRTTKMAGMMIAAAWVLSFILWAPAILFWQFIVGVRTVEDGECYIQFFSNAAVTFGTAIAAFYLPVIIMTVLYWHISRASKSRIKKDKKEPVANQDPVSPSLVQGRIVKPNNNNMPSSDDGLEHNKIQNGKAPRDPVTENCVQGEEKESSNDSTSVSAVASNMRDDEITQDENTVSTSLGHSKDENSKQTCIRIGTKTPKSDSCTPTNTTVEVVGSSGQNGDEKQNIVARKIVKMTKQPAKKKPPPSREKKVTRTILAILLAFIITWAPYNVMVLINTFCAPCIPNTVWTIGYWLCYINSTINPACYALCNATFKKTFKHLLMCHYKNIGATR
Source text: as §1

CNR1 = biological target: T5, CNR1 (Homo sapiens, UniProt P21554); assay: SAFETYScan GPCR cAMP, Antagonist; type: cell-based
T5 construct: expressed in transfected cells
Source text: as §1

CNR2 = biological target: T6, CNR2 (Homo sapiens, UniProt P34972); assay: SAFETYScan GPCR cAMP, Antagonist; type: cell-based
T6 construct: expressed in transfected cells
Source text: as §1

DRD1 = biological target: T7, DRD1 (Homo sapiens, UniProt P21728); assay: SAFETYScan GPCR cAMP, Antagonist; type: cell-based
T7 construct: expressed in transfected cells
Source text: as §1

DRD2S = biological target: T8, DRD2S (Homo sapiens, UniProt P14416); assay: SAFETYScan GPCR cAMP, Antagonist; type: cell-based
T8 construct: expressed in transfected cells
Source text: as §1

HRH2 = biological target: T9, HRH2 (Homo sapiens, UniProt P25021); assay: SAFETYScan GPCR cAMP, Antagonist; type: cell-based
T9 construct: expressed in transfected cells
Source text: as §1

HTR1A = biological target: T10, HTR1A (Homo sapiens, UniProt P08908); assay: SAFETYScan GPCR cAMP, Antagonist; type: cell-based
T10 construct: expressed in transfected cells
T10 sequence (P08908 1-422): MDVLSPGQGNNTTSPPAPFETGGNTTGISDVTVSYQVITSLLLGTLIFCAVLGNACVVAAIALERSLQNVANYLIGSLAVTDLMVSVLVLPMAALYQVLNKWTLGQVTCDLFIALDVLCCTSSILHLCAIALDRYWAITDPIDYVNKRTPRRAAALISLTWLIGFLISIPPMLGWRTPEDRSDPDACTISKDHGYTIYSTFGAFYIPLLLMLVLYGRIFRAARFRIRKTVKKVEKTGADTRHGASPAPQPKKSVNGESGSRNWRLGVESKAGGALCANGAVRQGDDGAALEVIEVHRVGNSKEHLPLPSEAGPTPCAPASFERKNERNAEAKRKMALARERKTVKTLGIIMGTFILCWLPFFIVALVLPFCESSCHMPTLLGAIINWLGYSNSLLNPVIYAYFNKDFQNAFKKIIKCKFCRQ
Source text: as §1

HTR1B = biological target: T11, HTR1B (Homo sapiens, UniProt P28222); assay: SAFETYScan GPCR cAMP, Antagonist; type: cell-based
T11 construct: expressed in transfected cells
Source text: as §1

OPRD1 = OPRD1 (Homo sapiens, UniProt P41143); assay: SAFETYScan GPCR cAMP, Antagonist; type: cell-based
Source text: as §1

OPRK1 = OPRK1 (Homo sapiens, UniProt P41145); assay: SAFETYScan GPCR cAMP, Antagonist; type: cell-based
Source text: as §1

OPRM1 = OPRM1 (Homo sapiens, UniProt P35372); assay: SAFETYScan GPCR cAMP, Antagonist; type: cell-based
Source text: as §1

NET = NET (Homo sapiens, UniProt P23975); assay: SAFETYScan Transporter, Blocker; type: cell-based
Source text: as §1

SERT = SERT (Homo sapiens, UniProt P31645); assay: SAFETYScan Transporter, Blocker; type: cell-based
Source text: as §1

OCI-Ly3 = assay: Cell proliferation assay (14 days), OCI-Ly3
Procedure: Cells were seeded in 96-well culture plates at a density of 2500 cells/well in RPMI-1640 medium (Sigma-
Aldrich) supplemented with 10% FBS (Gibco). Compounds were initially dispensed into 96-well U-bottom
plates using an Echo 550 acoustic dispenser (Labcyte Inc.), then diluted in RPMI-1640 medium and
transferred onto the cells. Cells were treated with 8 compound concentrations in duplicate, ranging from
with compound for 14 days, with medium changes at days 3, 7 and 10 carried out as follows: fresh 96-well
cell culture plates were prepared containing 100 µl medium plus compound at the assay concentrations
(white plates were used on day 10 to optimise luminescence measurement). Assay plates containing cells
were vortexed to mix and cell density in one control well was counted using a Coulter Z2 cell counter
(Beckman Coulter). The volume of medium containing 2500 cells in the control well was calculated and this volume of cells was transferred from every well of the assay plates to the corresponding well of the fresh plates containing compound. After 14 days, CellTiter Glo reagent (Promega) was added to the medium in each well of the assay plate at a ratio of 1:2, mixed on a plate shaker, then incubated at room temperature for 10 minutes. Luminescence was measured using an Envision plate reader (Perkin Elmer) and the relative luminescence at each compound concentration, compared to DMSO alone, was calculated. GI50 were determined using a 4-parameter curve fit in Dotmatics (Bishops Stortford, UK).

T3 sequence (P07550 whole entry): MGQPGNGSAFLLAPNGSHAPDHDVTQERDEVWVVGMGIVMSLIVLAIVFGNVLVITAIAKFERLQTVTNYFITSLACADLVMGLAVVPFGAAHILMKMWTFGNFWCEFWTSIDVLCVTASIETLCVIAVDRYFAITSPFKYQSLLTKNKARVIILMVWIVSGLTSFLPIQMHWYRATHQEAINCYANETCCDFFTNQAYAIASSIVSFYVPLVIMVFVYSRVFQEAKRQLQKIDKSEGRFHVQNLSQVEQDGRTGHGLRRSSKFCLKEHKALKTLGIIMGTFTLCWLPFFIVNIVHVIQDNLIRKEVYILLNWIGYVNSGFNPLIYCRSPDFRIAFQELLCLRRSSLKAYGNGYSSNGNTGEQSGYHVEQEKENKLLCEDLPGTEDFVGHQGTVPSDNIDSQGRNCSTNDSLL
NET, sequence (P23975 whole entry): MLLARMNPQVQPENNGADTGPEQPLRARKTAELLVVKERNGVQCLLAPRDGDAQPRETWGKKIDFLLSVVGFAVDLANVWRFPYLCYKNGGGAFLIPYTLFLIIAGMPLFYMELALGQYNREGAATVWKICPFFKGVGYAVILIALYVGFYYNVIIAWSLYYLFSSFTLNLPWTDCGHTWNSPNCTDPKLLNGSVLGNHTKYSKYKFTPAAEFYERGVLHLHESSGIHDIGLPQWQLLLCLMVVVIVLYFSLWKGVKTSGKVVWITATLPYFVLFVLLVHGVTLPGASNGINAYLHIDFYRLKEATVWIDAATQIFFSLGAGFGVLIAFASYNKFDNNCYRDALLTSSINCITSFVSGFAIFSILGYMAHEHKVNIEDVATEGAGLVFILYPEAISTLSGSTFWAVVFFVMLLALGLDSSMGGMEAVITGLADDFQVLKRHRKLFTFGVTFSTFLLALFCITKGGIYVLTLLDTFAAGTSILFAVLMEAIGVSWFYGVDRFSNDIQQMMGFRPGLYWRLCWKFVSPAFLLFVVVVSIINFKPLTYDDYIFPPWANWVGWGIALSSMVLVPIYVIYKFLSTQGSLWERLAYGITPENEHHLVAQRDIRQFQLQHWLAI
T11 sequence (P28222 whole entry): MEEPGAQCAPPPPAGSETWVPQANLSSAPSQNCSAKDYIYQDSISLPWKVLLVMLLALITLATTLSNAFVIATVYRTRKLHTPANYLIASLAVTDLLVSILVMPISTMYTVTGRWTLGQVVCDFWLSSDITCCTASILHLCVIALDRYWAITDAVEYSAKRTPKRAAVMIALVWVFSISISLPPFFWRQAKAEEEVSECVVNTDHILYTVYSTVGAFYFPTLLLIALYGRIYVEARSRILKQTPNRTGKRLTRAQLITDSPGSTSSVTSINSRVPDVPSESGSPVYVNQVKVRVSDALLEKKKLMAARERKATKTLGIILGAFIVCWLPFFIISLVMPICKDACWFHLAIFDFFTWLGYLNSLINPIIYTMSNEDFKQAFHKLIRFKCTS
T5 sequence (P21554 whole entry): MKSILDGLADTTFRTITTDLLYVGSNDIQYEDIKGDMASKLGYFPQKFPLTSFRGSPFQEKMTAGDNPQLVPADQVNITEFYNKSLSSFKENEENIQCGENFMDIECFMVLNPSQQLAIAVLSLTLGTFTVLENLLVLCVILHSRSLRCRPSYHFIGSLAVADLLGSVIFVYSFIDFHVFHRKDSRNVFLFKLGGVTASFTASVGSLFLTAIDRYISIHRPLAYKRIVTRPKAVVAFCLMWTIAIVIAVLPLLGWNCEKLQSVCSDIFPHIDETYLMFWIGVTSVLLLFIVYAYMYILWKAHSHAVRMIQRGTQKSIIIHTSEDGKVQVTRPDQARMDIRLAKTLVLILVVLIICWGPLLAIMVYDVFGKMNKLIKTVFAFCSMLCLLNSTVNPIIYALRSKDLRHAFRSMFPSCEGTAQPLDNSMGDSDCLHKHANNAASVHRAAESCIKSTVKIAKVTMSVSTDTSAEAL
OPRK1, sequence (P41145 whole entry, species assumed): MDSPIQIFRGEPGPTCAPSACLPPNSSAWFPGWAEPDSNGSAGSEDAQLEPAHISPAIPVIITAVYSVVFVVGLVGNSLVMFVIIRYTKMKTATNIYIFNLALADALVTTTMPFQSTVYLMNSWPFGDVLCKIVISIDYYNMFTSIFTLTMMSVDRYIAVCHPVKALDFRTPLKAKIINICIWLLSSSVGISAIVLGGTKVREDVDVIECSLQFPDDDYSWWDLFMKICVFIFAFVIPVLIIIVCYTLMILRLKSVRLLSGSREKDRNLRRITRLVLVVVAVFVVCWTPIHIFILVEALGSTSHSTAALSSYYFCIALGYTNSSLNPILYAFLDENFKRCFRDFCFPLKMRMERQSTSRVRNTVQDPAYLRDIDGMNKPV
T8 sequence (P14416 1-414 isoform P14416-2): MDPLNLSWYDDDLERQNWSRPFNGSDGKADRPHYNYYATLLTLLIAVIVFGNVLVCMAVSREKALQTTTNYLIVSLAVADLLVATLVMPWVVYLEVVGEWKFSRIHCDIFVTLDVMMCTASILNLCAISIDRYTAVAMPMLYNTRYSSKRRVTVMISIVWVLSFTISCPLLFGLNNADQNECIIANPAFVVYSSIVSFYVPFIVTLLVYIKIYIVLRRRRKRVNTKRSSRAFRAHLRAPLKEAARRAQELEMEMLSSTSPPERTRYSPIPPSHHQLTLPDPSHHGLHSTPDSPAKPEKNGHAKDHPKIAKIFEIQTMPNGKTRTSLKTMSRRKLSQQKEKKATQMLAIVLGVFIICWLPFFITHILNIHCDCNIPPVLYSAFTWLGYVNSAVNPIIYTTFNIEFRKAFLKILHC
T6 sequence (P34972 whole entry): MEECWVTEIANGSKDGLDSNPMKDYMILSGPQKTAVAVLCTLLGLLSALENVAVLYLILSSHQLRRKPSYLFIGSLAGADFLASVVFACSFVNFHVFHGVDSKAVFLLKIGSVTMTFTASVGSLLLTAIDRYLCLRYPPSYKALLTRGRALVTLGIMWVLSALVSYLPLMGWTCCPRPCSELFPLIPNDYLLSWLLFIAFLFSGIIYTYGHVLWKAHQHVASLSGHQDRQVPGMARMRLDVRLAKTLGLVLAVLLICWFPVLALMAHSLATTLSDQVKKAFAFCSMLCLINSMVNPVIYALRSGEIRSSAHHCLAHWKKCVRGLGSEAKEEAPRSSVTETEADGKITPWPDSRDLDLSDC
T9 sequence (P25021 whole entry): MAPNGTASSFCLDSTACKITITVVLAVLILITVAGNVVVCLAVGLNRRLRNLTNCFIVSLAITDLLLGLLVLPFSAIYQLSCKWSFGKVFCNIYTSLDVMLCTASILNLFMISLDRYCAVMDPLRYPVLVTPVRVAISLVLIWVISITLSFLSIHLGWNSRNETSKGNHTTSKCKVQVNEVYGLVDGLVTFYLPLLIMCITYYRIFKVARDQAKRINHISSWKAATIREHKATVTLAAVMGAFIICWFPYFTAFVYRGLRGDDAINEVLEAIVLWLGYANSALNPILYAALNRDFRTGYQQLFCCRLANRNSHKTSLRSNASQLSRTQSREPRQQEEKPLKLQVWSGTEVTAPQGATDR
OPRD1, sequence (P41143 whole entry, species assumed): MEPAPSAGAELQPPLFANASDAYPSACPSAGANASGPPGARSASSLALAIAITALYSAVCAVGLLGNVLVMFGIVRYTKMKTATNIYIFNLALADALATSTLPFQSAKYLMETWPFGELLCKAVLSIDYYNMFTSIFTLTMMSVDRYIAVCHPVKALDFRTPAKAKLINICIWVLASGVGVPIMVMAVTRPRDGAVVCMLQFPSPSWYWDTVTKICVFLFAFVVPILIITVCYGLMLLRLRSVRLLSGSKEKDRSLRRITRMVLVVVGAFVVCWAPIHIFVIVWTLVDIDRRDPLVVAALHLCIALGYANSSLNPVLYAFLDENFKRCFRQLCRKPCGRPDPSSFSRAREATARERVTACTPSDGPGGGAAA
T7 sequence (P21728 whole entry): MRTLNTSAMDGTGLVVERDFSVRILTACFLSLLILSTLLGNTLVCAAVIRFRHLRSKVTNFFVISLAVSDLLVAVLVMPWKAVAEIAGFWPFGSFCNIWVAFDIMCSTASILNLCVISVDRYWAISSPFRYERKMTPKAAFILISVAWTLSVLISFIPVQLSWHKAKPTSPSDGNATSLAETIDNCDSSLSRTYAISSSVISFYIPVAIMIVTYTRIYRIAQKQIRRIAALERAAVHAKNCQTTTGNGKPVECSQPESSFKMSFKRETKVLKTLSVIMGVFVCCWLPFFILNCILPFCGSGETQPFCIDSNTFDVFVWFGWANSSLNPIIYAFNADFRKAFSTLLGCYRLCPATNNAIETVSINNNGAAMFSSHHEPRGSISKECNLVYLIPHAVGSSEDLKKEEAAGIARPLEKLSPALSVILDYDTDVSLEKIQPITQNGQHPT
OPRM1, sequence (P35372 whole entry, species assumed): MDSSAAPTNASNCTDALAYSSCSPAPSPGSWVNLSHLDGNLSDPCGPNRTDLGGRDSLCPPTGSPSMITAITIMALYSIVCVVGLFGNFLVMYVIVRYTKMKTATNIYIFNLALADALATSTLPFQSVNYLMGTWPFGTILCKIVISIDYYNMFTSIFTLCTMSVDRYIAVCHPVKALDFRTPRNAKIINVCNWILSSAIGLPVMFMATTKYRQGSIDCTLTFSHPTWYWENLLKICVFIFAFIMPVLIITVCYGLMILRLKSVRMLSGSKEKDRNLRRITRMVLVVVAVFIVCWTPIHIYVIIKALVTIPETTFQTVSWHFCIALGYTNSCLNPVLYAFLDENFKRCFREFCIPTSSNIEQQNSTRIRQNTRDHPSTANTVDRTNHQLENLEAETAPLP

SMILES: C[C@H]1C[C@@H](O)CN(c2ncc(Cl)c(Nc3ccc4c(c3)c3c(c(=O)n4C)OCC(F)(F)[C@H](C4CC4)N3)n2)C1 [12a CCT373566, (S)-10-((5-Chloro-2-((3R,5S)-3-hydroxy-5-methylpiperidin-1-yl)pyrimidin-4-yl)amino)-2-cyclopropyl-3,3-difluoro-7-methyl-1,2,3,4-tetrahydro-[1,4]oxazepino[2,3-c]quinolin-6(7H)-one]
- PAMPA (pH 7.4) (in vitro): 24 ×10–6 cm s–1
- appearance of mice after dosing ([1]; 1 mg/kg i.v. and 5 mg/kg p.o., female Balb/C mice, after dosing and 24 h after dosing): appeared normal
- increase in free concentration/exposure in vivo compared to CCT369260 ([1]; 5 mg/kg po, BALB/c mice): over fivefold increase
- Vd ([1]; Balb/C, mouse, whole blood, intravenous, initial PK studies): 0.47 L/kg
- CL as % Qh ([1]; female Balb/C mice): 6 % Qh
- bioavailability ([1]; female, Balb/C, mouse, in vivo, po, 5 mg/kg): 44%
- Vd ([1]; mouse, in vivo, female Balb/C mice): 0.47 L/kg
- clearance ([1]; mouse, in vivo, iv, female Balb/C mice, 1 mg/kg i.v.): 5.7 mL/min/kg
- half-life at 6 h ([1]; mouse, in vivo, po, 5 mg/kg, female Balb/C mice): 1.15 h
- Cmax ([1]; mouse, in vivo, female Balb/C mice, 1 mg/kg i.v. and 5 mg/kg p.o.): 3.95 µM
- CLu ([1]; unbound clearance, female Balb/C mice): 4670 mL/min/kg
- Emax (ADRA2A; read-out: Max Response): 0%
- IC50 (ADRA2A; read-out: RC50 (IC50)): > 10 µM
- Emax (ADRB1; read-out: Max Response): 57.3%
- IC50 (ADRB1; read-out: RC50 (IC50)): > 10 µM
- Emax (ADRB2; read-out: Max Response): 62.3%
- IC50 (ADRB2; read-out: RC50 (IC50)): 1.74 µM
- Emax (CHRM2; read-out: Max Response): 30.1%
- IC50 (CHRM2; read-out: RC50 (IC50)): > 10 µM
- Emax (CNR1; read-out: Max Response): 1.95%
- IC50 (CNR1; read-out: RC50 (IC50)): > 10 µM
- Emax (CNR2; read-out: Max Response): 10.7%
- IC50 (CNR2; read-out: RC50 (IC50)): > 10 µM
- Emax (DRD1; read-out: Max Response): 51.9%
- IC50 (DRD1; read-out: RC50 (IC50)): 4.89 µM
- Emax (DRD2S; read-out: Max Response): 28.7%
- IC50 (DRD2S; read-out: RC50 (IC50)): > 10 µM
- Emax (HRH2; read-out: Max Response): 46.3%
- IC50 (HRH2; read-out: RC50 (IC50)): > 10 µM
- Emax (HTR1A; read-out: Max Response): 13.8%
- IC50 (HTR1A; read-out: RC50 (IC50)): > 10 µM
- Emax (HTR1B; read-out: Max Response): 5.08%
- IC50 (HTR1B; read-out: RC50 (IC50)): > 10 µM
- Emax (OPRD1; read-out: Max Response): 0%
- IC50 (OPRD1; read-out: RC50 (IC50)): > 10 µM
- Emax (OPRK1; read-out: Max Response): 1.28%
- IC50 (OPRK1; read-out: RC50 (IC50)): > 10 µM
- Emax (OPRM1; read-out: Max Response): 9.16%
- IC50 (OPRM1; read-out: RC50 (IC50)): > 10 µM
- Emax (NET; read-out: Max Response): 8.36%
- IC50 (NET; read-out: RC50 (IC50)): > 10 µM
- Emax (SERT; read-out: Max Response): 0%
- IC50 (SERT; read-out: RC50 (IC50)): > 10 µM
- OCI-Ly3 GI50 (OCI-Ly3; 14-day proliferation assay, BCL6 low-expressing cell line): not seen
- GI50 (OCI-Ly3; Homo sapiens, OCI-Ly3, 336 h, read-out: OCI-Ly3 GI50): 1.9 µM
